Test results as given in article PMC6722010 (Molecular pharmaceutics, 2019).

What was measured:
[1] = tested on: PSMA; test: in vivo 68Ga-PSMA-11 blocking, PET imaging and biodistribution; conditions: 22Rv1 xenograft mice; organs gamma counted
[2] = solubility; format: physicochemical; conditions: water / buffer

N[C@@H](Cc1ccc(B(O)O)cc1)C(=O)O [BPA, 4-borono-L-phenylalanine]
68Ga-PSMA-11 biodistribution, uptake in kidney, spleen and tumor [1]: did not significantly block uptake | solubility [2]: low solubility in buffer
